From ChEMBL document CHEMBL1124324, “Rational design of enzyme inhibitors: multisubstrate analogue inhibitors” (J Med Chem, 1989)

Molecular target: Thymidylate synthase (Homo sapiens, UniProt P04818)
Test: Inhibition of compound against thymidylate synthetase

Chain of Thymidylate synthase (P04818 whole entry): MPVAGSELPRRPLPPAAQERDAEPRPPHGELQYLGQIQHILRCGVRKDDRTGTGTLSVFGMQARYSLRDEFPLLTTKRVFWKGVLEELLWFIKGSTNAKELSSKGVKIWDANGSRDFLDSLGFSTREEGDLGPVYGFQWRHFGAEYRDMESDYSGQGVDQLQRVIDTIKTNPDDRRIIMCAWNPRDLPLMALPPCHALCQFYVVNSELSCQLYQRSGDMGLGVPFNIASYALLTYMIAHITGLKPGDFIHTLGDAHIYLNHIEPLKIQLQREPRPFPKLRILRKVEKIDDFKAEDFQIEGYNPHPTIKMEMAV

| Structure (SMILES) | Ki [nM] |
| --- | --- |
| CN1CCN(Cc2cn([C@H]3C[C@H](O)[C@@H](COP(=O)(O)O)O3)c(=O)[nH]c2=O)c2ccccc21 | 60 |
| CN(CC1CNc2nc(N)[nH]c(=O)c2N1Cc1c[nH]c(=O)[nH]c1=O)c1ccc(C(=O)NC(CCC(=O)O)C(=O)O)cc1 (stereo not drawn) | 750 |
| NC1=NC(=O)C2C(=N1)CCC(CNc1ccc(C(=O)NC(CCC(=O)O)C(=O)O)cc1)N2Cc1cn([C@H]2C[C@H](O)[C@@H](COP(=O)(O)O)O2)c(=O)[nH]c1=O (stereo partly drawn) | 30 |
